Source: patent US12048683B2, “Kaempferol analog-containing composition” (OTSUKA PHARMACEUTICAL CO., LTD., priority 2017, dated 2024)

Key:
[1] = system: healthy male adults; assay: Effect on performance in 400 m run; assay type: in vivo, human; conditions: single ingestion, 10 mg aglycone equivalent, 3 hours before run; placebo group −0.11 seconds
Procedure: A two-group and two-phase crossover study (single ingestion) was conducted for 13 healthy male adults. In the study, a kaempferol-containing capsule-shaped food (SNR 14) wherein the aglycone equivalent value is 10 mg; and a placebo capsule-shaped food: Placebo (kaempferol free) were used as test foods. Three hours after taking the test food, the subjects sprinted 400 m, and sprinted 400 m again after a 90 minute interval. Respiratory rate and heart rate were monitored during the sprint. The expiratory mouth pressure was measured by the maximum mouth pressure method, before and after the 400 m runs, using an electronic spirometer, autospyro (Minato Medical Science Co., Ltd.). The subjects inhaled to the limit after three deep breaths in a standing position and then exhaled with full force into the mouthpiece for measurement while preventing air leakage from the nose to determine expiratory mouth pressure.

[2] = system: healthy adult males; assay: Incremental loading exercise test with bicycle; assay type: in vivo, human; conditions: compared with no intake of kaempferol
Procedure: For 25 healthy adult males, 3 dosages of kaempferol-containing cookie-shaped foods (containing 2.5 mg, 10 mg, or 25 mg of kaempferol, respectively) and a placebo cookie-shaped food (kaempferol-free) were used as test foods, and a once-a-day ingestion for consecutive 8 days were repeated four times by the crossover method. 3 hours after a test food ingestion on day 1 (Single ingestion) and on day 8 (Consecutive ingestion), an incremental loading exercise with bicycle was performed while sampling the exhaled gas to determine the oxygen consumption. The Heart rate and the rating of perceived exertion were monitored during exercise. Dynamic/kinetic visual acuity was measured before and after the exercise. Details of each endpoint are given below. Oxygen consumption (VO2) (mL/min/kg) was calculated from the difference between the amount of oxygen in the inhaled gas (atmosphere) and the amount of oxygen in the exhaled gas. When a weight of the pedal approaches a subject's limit during incremental loading exercise with bicycle, a heart rate (HR) is maximized. The increase in heart rate from the resting heart rate to the maximum heart rate was defined as 100% of exercise intensity, and the oxygen consumption (VO2) was plotted at each exercise intensity. That is, for example, an exercise intensity of 50% HR is calculated by the following equation: 100×(x−Resting heart rate)/(Maximum heart rate−Resting heart rate)=50% HR, and the oxygen consumption (VO2) in which the heart rate is the “x” means “oxygen consumption (VO2) at an exercise intensity of 50% HR”. Oxygen consumption efficiency was calculated by the following equation. Oxygen consumption efficiency (VO2/VE)=oxygen consumption/ventilation The oxygen uptake efficiency slope (OUES) was calculated using the ventilation and VO2 every 1 min from the beginning of the incremental loading exercise. Specifically, a graph of linearity was obtained by plotting “logarithmic value of ventilation (VE)” on the horizontal axis and “VO2” on the vertical axis, and the slope of the linear function graph was defined as OUES. For details, see Non-Patent Document 5. Exercise intensity (% HR) and rating of perceived exertion (RPE) at the oxygen consumption (VO2) of 14 mL/min/kg and 24.5 mL/min/kg in incremental loading exercise (the levels of stair climbing and jogging, respectively) were evaluated. The calculation methods for oxygen consumption (VO2) and exercise intensity (% HR) are the same as those described above. The perceived exertion was rated by the subject according to the following table at 1-minute intervals from the beginning of the incremental loading exercise, and the scales rated by each subject were averaged to give the rating of perceived exertion (RPE).

[3] = at oxygen consumption (VO2) of 14 and 24.5 mL/min/kg (stair climbing and jogging levels), single and consecutive ingestion
[4] = single ingestion and consecutive ingestion

## O=c1c(O)c(-c2ccc(O)cc2)oc2cc(O)cc(O)c12 [kaempferol]
[1]
  mean time change between the 1st and 2nd 400 m runs: -0.77 s
[2]; at all exercise intensities (50%, 60%, 70%, 80%, 90%, and 100% HR), single ingestion and consecutive ingestion (8 days), 2.5, 10 or 25 mg kaempferol cookie
  oxygen consumption (VO2): increased
[2]; [3]
  exercise intensity (% HR): decreased
  rating of perceived exertion (RPE): decreased
[2]; [4]
  maximum exercise load (Pedal Weight (watt)): increased
  maximum oxygen consumption (VO2peak): increased
  oxygen consumption efficiency (VO2/VE): increased
  oxygen uptake efficiency slope (OUES): increased
